Test results reported in ChEMBL document CHEMBL3822421, “Insights into the structure-activity relationship of the anticancer compound ZJ-101, a derivative of marine natural product superstolide A: A critical role played by the conjugated trienyl lactone moiety” (Bioorg Med Chem Lett, 2016).

What was measured:
Assay type in all cases: functional, cell-based
[1] = test system: MDA-MB-231; assay: Antiproliferative activity against human MDA-MB-231 cells after 48 to 72 hrs by Alamar blue assay
[2] = test system: RKO; assay: Antiproliferative activity against human RKO cells after 48 to 72 hrs by Alamar blue assay
[3] = test system: MCF7; assay: Antiproliferative activity against human MCF7 cells after 48 to 72 hrs by Alamar blue assay
[4] = Antiproliferative activity against human SF295 cells after 48 to 72 hrs by Alamar blue assay; settings: SF-295

SMILES | IC50 [1] [nM] | IC50 [2] [nM] | IC50 [3] [nM] | IC50 [4] [nM]
CC(=O)N[C@H](C)[C@@H](O)[C@@H](C)[C@@H]1OC(=O)/C=C/C=C(C)\C=C\[C@]2(C)CCC=C[C@@H]2/C=C(C)/C=C/[C@H]1C | 63 | 214 | 36.5 | 63.5
CC(=O)N[C@H](C)[C@@H](O)[C@@H](C)[C@@H]1OC(=O)/C=C/C=C(C)/C=C/[C@]2(C)CCC=C[C@@H]2/C=C(C)/C=C/[C@H]1C | 384 | 1070 | 376 | 611
CC(=O)N[C@H](C)[C@@H](O)[C@@H](C)[C@@H]1OC(=O)CC/C=C(C)\C=C\[C@]2(C)CCC=C[C@@H]2/C=C(C)/C=C/[C@H]1C | > 5000 | > 5000 | > 5000 | > 5000
